Like-named read-outs stand apart in the source and are kept apart here.
Tests used:
[1] = target: AEA-DA lipid probe targets in Neuro2a cells (Mus musculus, UniProt Q6PA06)
[2] = target: AEA-DA lipid probe targets in Neuro2a cells (Mus musculus, UniProt Q9D771)
[3] = target: T1, AEA-DA lipid probe targets in Neuro2a cells (Mus musculus, UniProt P17439)
T1 sequence (P17439 20-515): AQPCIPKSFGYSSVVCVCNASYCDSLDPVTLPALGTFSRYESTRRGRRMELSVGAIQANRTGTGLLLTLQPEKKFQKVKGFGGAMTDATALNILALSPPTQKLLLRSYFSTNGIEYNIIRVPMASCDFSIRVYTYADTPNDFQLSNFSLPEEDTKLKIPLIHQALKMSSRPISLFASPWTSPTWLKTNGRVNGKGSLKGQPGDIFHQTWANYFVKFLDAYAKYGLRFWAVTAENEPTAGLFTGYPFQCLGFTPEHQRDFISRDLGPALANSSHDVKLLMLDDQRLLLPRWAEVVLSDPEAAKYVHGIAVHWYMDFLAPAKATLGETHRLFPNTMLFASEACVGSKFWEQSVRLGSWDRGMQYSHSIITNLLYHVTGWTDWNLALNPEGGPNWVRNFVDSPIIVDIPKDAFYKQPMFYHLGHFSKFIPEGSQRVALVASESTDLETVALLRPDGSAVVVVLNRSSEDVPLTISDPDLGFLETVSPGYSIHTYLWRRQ

[4] = target: T2, AEA-DA lipid probe targets in Neuro2a cells (Mus musculus, UniProt Q8BMK4)
T2 sequence (Q8BMK4 1-575): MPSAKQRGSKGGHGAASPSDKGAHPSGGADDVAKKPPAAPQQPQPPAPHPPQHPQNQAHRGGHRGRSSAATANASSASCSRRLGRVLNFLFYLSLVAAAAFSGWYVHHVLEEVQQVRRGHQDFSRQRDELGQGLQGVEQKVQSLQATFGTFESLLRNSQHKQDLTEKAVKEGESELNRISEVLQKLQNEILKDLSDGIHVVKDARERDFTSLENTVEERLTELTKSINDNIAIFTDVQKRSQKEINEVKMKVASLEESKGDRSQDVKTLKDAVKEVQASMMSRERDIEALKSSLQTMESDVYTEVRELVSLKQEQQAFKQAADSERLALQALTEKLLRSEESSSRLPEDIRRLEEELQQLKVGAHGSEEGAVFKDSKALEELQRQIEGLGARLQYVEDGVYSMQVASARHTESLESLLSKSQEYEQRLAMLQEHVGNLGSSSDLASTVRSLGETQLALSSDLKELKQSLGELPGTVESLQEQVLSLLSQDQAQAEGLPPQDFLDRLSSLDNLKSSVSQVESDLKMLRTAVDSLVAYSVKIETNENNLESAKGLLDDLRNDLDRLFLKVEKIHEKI

[5] = target: T3, AEA-DA lipid probe targets in Neuro2a cells (Mus musculus, UniProt Q8VD00)
T3 sequence (Q8VD00 1-176): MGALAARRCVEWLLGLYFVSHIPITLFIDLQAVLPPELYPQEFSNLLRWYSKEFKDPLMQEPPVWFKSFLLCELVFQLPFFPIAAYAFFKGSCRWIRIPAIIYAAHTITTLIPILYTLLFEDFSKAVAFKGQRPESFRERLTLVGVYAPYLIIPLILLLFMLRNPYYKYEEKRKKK

[6] = target: T4, AEA-DA lipid probe targets in Neuro2a cells (Mus musculus, UniProt O70503); conditions: for SILAC ratio, HSD17B12 (Q53GQ0): Neuro2a cells, AEA-DA probe
T4 sequence (O70503 1-312): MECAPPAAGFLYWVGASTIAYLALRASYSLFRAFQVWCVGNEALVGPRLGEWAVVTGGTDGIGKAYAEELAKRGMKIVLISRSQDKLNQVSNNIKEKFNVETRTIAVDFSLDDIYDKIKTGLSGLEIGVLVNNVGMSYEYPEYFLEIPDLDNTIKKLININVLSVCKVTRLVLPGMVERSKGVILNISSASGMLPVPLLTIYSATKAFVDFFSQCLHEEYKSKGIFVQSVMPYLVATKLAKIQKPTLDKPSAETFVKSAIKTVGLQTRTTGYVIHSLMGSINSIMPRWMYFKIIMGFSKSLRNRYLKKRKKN

[7] = target: T5, AEA-DA lipid probe targets in Neuro2a cells (Mus musculus, UniProt Q920A5)
T5 sequence (Q920A5 29-452): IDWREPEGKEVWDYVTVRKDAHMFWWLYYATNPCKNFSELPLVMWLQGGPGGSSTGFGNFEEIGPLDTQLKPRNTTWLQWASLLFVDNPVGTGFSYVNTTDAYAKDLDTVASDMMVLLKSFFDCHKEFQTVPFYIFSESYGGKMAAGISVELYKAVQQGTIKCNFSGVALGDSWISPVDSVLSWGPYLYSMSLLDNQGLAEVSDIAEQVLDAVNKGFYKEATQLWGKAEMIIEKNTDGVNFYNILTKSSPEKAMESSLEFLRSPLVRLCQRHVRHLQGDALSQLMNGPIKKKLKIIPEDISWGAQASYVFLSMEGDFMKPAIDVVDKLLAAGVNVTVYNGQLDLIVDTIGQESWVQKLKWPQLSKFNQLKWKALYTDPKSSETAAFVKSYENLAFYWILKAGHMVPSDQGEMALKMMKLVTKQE

[8] = target: T6, AEA-DA lipid probe targets in Neuro2a cells (Mus musculus, UniProt Q8VC28)
T6 sequence (Q8VC28 1-323): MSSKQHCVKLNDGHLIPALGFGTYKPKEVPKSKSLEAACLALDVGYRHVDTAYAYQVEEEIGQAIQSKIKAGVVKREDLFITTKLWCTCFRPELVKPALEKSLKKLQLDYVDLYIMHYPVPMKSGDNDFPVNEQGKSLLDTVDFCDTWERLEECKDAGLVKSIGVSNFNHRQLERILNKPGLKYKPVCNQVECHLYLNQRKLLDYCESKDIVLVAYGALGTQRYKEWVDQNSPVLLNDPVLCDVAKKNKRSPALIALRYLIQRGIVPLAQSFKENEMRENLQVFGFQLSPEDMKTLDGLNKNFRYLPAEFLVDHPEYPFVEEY

Sequence of AEA-DA lipid probe targets in Neuro2a cells (Mus musculus, UniProt Q6PA06) (Q6PA06 whole entry): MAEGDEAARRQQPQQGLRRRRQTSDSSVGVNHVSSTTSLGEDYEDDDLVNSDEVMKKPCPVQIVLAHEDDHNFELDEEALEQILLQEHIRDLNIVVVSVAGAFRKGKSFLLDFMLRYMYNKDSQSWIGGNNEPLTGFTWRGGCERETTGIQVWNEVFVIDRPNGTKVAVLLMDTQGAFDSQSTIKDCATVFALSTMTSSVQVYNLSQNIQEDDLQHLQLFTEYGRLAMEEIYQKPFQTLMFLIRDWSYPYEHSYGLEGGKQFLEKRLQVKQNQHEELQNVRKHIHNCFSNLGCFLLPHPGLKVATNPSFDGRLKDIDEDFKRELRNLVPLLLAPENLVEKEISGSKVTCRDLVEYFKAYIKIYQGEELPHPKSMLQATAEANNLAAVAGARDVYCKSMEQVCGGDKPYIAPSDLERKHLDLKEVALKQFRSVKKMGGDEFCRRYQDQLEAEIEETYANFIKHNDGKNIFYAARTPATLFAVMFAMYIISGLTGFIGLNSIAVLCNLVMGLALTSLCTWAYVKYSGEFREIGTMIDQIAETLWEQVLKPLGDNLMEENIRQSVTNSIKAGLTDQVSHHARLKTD
Sequence of AEA-DA lipid probe targets in Neuro2a cells (Mus musculus, UniProt Q9D771) (Q9D771 whole entry): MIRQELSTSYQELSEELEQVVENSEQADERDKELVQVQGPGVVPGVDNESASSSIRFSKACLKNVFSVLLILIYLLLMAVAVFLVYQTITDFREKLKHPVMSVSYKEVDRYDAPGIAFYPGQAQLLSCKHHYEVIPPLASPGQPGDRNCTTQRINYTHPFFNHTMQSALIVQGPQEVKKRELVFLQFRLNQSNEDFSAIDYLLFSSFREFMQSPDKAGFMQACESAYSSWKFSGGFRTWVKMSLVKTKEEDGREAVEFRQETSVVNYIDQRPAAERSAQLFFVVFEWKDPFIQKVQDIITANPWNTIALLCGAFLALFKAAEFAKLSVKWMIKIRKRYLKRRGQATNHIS

SMILES | SILAC ratio, Atl2 ([1]; competitor 25 μM) | SILAC ratio Tmem206 ([2]; competitor 25 μM) | SILAC ratio Gba ([3]; competitor 25 μM) | SILAC ratio, Ckap4 ([4]; competitor 25 μM) | SILAC ratio, Tmem97 ([5]; competitor 25 μM) | SILAC ratio, HSD17B12 (Q53GQ0) ([6]; competitor 25 μM) | SILAC ratio, Hsd17b12 ([6]; competitor 25 μM) | SILAC ratio Scpep1 ([7]; competitor 25 μM) | SILAC ratio Akr1c13 ([8]; competitor 25 μM) | further results
CCCCC/C=C\C/C=C\C/C=C\C/C=C\CCCC(=O)NCCO [AEA, anandamide, reference compound] | – | – | – | – | – | – | – | – | – | SILAC ratio, Atl2 ([1]; competitor 200 μM): 2.0; SILAC ratio Tmem206 ([2]; competitor 200 μM): 1.2; SILAC ratio Gba ([3]; competitor 200 μM): 1.5; SILAC ratio, Ckap4 ([4]; competitor 200 μM): 2.0; SILAC ratio, Tmem97 ([5]; competitor 200 μM): 1.8; SILAC ratio, HSD17B12 (Q53GQ0) ([6]; competitor 200 μM): 2.2; SILAC ratio, Hsd17b12 ([6]; competitor 200 μM): 2.2; SILAC ratio Scpep1 ([7]; competitor 200 μM): 1.0; SILAC ratio Akr1c13 ([8]; competitor 200 μM): 1.7
O=C(/C=C/c1cccnc1)NCCCCC1CCN(C(=O)c2ccccc2)CC1 [FK-866, reference compound] | 1.1 | 0.9 | 1.0 | 1.1 | 1.0 | 1.7 | 1.7 | 1.2 | 1.0 | –
CN1CCN(C(=O)c2c(-c3ccccc3)c3cc([N+](=O)[O-])ccc3n2C)CC1 [KML110, (1-Methyl-5-nitro-3-phenyl-1H-indol-2-yl)(4-methylpiperazin-1-yl)methanone] | 1.3 | 1.2 | 2.4 | 1.4 | 1.6 | – | 1.7 | 1.6 | 1.1 | –
CN1CCN(C(=O)c2[nH]c3ccc([N+](=O)[O-])cc3c2-c2ccccc2)CC1 [MJN228, (4-Methylpiperazin-1-yl)(5-nitro-3-phenyl-1H-indol-2-yl)methanone] | 1.4 | 1.3 | – | 1.4 | 1.7 | 1.6 | 1.6 | 1.4 | 1.0 | SILAC ratio, Atl2 ([1]; competitor 10 μM): 1.1; SILAC ratio, Atl2 ([1]; competitor 50 μM): 1.6; SILAC ratio Tmem206 ([2]; competitor 10 μM): 1.1; SILAC ratio Tmem206 ([2]; competitor 100 μM): 0.7; SILAC ratio Gba ([3]; competitor 10 μM): 2.2; SILAC ratio, Ckap4 ([4]; competitor 10 μM): 1.3; SILAC ratio, Ckap4 ([4]; competitor 50 μM): 1.3; SILAC ratio, Ckap4 ([4]; competitor 100 μM): 1.8; SILAC ratio, Tmem97 ([5]; competitor 10 μM): 1.4; SILAC ratio, Tmem97 ([5]; competitor 50 μM): 2.1; SILAC ratio, Tmem97 ([5]; competitor 100 μM): 3.2; SILAC ratio, Hsd17b12 ([6]; competitor 10 μM): 1.2; SILAC ratio, Hsd17b12 ([6]; competitor 50 μM): 1.7; SILAC ratio, Hsd17b12 ([6]; competitor 100 μM): 2.3; SILAC ratio Scpep1 ([7]; competitor 10 μM): 1.2; SILAC ratio Scpep1 ([7]; competitor 50 μM): 1.5; SILAC ratio Scpep1 ([7]; competitor 100 μM): 1.9; SILAC ratio Akr1c13 ([8]; competitor 50 μM): 1.0
C=CCN(C)CCCCCCOc1ccc(C(=O)c2ccc(Br)cc2)c(F)c1 [Ro 48-8071, reference compound] | 1.2 | 0.6 | 0.7 | 1.1 | 10.0 | 0.9 | 0.9 | 0.4 | 1.0 | –

— patent US10168342B2, “Lipid probes and uses thereof” (THE SCRIPPS RESEARCH INSTITUTE, priority 2015, dated 2019)
